For assay [1], the target named is T1, human αvβ3-integrin (Homo sapiens, UniProt P05106+P06756).
T1 construct: purchased R&D
The assay can be described thus: ELISA-like solid-phase binding assay, soluble integrin αvβ3 vs coated vitronectin. The settings on record: for IC50: coated vitronectin, soluble integrin, referenced to internal standard. In general terms: ELISA stands for enzyme-linked immunosorbent assay.

Assay [2] addresses α5β1 integrin (Homo sapiens, UniProt P05556+P08648). Description: ELISA-like solid-phase binding assay, soluble integrin α5β1 vs coated fibronectin. More on the design: purchased R&D.
In assay [3] the target is T2, human αvβ8-Integrin (Homo sapiens, UniProt P06756+P26012).
T2 construct: purchased R&D
The assay can be described thus: ELISA-like solid-phase binding assay, soluble integrin αvβ8 vs coated LAP (TGF-β). The settings on record: referenced to internal standard.

The target in assay [4] is T3, human αvβ6-Integrin (Homo sapiens, UniProt P06756+P18564).
T3 construct: purchased R&D
The assay can be described thus: ELISA-like solid-phase binding assay, soluble integrin αvβ6 vs coated LAP (TGF-β). The note with it: for IC50: coated LAP, soluble integrin, referenced to internal standard.

In assay [5] the target is T4, human platelet integrin αIIbβ3 (Homo sapiens, UniProt P05106+P08514).
T4 construct: purchased VWR
The assay can be described thus: ELISA-like solid-phase binding assay, soluble integrin αIIbβ3 vs coated fibrinogen. The note with it: referenced to internal standard.

Assay [6] deals with T5, human αvβ5-integrin (Homo sapiens, UniProt P06756+P18084).
T5 construct: purchased Millipore
The assay can be described thus: ELISA-like solid-phase binding assay, soluble integrin αvβ5 vs coated vitronectin. The settings on record: referenced to internal standard.

Setting [7] is: coated fibronectin, soluble integrin, referenced to internal standard, read-out: IC50 α5β1.

Where “and” joins values, the source holds several entries; their conditions need not be identical. Equal entries are not always repeated. Where two headings read alike, the source gives them in different places. Positions of bridges follow the written chain, without caps; N, C: chain ends. Non-standard residues stand in square brackets, D forms with d. Residues, ends and D or L forms follow the SMILES beside them. Groups on a side chain read outwards from the residue. *: point of attachment. X1 = O=C(COCC(=O)*)NCCOCCOCCOCCOCCOCCNC(=O)CO/N=C/c1ccc(F)cc1; X2 = NC(=O)COCC(=O)NCCOCCOCCOCCN*; dPhg = N[C@@H](C(=O)O)c1ccccc1; AEEA = NCCOCCOCC(=O)O; Mpa = O=C(O)CCS

The source of these data is article PMC5225454, “A Comprehensive Evaluation of the Activity and Selectivity Profile of Ligands for RGD-binding Integrins” (Scientific Reports, 2017).

Sequence of α5β1 integrin (P08648 42-995 limits assumed): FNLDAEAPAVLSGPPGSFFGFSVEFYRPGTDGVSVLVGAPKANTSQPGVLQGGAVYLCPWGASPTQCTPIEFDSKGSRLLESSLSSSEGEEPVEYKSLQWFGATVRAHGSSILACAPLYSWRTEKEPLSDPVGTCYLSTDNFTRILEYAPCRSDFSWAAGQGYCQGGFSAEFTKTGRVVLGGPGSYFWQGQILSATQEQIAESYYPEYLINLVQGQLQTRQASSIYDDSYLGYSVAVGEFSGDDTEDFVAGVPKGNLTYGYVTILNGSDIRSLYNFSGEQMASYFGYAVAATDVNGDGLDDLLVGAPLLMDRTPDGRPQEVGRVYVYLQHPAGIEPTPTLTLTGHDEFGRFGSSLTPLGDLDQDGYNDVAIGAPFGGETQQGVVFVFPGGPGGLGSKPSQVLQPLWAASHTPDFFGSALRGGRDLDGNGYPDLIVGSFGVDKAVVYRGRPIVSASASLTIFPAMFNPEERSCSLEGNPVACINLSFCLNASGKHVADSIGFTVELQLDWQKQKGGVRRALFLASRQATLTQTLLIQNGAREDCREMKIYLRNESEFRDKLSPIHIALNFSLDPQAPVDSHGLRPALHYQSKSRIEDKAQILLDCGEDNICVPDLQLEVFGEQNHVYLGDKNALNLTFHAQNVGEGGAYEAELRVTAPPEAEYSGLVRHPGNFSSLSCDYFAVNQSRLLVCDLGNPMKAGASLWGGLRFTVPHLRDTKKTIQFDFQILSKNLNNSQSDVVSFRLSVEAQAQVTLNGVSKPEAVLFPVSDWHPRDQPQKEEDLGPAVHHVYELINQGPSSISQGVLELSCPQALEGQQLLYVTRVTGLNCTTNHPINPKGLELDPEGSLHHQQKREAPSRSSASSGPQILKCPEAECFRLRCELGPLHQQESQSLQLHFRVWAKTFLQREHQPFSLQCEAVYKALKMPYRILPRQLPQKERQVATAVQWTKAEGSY
Sequence of α5β1 integrin (P05556 21-728 limits assumed): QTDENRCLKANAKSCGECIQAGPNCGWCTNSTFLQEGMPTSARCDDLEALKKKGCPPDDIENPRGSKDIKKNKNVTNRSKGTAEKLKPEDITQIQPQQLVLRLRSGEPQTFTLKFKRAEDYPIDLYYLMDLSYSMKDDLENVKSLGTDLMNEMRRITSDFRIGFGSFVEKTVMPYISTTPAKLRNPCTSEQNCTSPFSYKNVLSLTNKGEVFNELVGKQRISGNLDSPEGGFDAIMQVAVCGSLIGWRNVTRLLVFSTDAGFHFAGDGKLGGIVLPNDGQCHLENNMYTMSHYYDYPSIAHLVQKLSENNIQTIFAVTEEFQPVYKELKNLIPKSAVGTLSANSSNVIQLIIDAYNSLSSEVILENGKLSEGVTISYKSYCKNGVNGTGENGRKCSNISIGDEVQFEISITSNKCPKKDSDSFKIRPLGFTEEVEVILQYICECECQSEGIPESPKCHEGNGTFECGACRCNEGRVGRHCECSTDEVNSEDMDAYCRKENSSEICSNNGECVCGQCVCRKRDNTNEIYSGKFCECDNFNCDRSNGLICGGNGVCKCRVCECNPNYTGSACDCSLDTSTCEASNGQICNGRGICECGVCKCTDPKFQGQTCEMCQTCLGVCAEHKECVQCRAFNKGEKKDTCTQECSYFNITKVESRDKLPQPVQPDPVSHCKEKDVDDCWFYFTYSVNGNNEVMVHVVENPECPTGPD
T2 sequence (P06756 31-992 limits assumed): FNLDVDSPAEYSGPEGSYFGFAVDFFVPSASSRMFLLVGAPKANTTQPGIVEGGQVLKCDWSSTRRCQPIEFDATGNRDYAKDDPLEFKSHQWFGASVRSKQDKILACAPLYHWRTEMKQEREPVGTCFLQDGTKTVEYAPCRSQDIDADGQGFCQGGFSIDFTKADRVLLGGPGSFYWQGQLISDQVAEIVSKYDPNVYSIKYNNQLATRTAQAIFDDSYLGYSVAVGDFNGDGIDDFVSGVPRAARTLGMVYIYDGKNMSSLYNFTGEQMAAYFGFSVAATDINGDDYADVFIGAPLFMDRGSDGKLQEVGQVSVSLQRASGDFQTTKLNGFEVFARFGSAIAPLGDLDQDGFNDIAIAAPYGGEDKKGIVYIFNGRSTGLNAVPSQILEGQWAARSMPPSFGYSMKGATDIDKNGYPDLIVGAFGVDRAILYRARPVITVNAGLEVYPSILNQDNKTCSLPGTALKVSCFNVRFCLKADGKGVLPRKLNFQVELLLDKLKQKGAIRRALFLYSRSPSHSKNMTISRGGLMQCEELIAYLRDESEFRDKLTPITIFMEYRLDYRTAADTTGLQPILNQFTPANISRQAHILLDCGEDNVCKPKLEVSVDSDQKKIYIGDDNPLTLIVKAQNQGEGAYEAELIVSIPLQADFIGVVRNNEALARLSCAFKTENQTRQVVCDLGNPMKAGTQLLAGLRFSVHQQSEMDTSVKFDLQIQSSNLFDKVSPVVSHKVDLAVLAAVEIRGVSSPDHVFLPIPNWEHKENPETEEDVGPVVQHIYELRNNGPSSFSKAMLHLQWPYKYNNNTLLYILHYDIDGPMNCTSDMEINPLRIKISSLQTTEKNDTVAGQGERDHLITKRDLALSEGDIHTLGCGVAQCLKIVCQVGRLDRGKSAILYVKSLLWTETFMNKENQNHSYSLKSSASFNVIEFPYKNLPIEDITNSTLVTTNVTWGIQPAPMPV
T2 sequence (P26012 43-684 limits assumed): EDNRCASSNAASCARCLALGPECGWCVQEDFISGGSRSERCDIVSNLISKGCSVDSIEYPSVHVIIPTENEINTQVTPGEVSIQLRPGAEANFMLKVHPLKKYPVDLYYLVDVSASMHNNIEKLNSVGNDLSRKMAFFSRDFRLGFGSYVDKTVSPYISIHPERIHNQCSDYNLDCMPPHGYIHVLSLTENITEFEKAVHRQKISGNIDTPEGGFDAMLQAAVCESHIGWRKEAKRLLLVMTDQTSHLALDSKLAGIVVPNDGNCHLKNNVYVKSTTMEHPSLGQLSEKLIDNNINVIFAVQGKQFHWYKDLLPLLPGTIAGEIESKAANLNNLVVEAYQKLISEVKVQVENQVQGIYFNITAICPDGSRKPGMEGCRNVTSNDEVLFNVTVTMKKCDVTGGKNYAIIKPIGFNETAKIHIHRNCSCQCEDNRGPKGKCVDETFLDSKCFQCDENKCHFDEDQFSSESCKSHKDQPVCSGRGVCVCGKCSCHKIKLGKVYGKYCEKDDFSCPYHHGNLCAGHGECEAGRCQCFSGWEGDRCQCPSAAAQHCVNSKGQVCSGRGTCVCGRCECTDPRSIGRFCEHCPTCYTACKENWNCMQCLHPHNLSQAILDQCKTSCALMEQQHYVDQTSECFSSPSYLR
T1 sequence (P06756 31-992 limits assumed): as the sequence (P06756 31-992 limits assumed) above
T1 sequence (P05106 27-718 limits assumed): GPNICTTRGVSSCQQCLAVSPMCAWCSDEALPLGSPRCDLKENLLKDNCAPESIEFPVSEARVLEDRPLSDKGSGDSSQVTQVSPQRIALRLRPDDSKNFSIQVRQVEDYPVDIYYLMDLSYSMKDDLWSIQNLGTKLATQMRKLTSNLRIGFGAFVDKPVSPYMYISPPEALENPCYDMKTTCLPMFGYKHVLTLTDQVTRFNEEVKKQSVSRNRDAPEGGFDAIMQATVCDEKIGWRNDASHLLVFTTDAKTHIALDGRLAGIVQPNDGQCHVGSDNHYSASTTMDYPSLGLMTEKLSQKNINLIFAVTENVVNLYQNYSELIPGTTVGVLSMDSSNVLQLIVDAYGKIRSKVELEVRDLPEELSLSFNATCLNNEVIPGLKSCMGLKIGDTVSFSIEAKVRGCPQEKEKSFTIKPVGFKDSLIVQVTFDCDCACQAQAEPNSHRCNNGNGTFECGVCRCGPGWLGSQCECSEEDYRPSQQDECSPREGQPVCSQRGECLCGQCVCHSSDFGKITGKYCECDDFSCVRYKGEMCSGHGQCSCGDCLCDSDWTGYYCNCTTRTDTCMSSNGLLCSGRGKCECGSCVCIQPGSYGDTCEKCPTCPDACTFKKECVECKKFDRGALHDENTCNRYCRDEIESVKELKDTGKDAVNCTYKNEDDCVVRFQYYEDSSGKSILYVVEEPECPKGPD
T3 sequence (P06756 31-992 limits assumed): as the sequence (P06756 31-992 limits assumed) above
T3 sequence (P18564 22-707 limits assumed): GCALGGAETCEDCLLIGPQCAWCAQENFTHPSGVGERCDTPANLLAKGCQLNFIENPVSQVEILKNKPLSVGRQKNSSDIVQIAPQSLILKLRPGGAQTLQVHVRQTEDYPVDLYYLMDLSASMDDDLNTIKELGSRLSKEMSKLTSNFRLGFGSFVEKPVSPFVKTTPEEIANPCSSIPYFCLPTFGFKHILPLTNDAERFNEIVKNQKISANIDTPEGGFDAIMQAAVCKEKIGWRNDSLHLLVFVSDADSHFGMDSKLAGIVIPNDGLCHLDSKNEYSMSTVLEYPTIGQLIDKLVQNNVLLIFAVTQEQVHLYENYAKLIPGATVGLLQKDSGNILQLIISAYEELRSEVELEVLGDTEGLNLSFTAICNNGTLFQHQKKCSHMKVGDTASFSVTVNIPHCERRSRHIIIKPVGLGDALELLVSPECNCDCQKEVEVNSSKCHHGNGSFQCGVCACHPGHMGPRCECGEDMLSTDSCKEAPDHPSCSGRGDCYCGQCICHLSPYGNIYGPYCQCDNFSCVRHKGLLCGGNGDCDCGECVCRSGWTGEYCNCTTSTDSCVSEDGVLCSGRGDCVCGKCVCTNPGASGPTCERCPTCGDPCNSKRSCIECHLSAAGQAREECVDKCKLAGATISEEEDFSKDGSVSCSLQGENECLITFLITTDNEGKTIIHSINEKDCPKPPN

For orientation: IC50 means the midpoint of a concentration-inhibition curve. For `N=C(N)NCCC[C@@H]1NC(=O)[C@@H]2CSSC[C@H](NC(=O)[C@H](CC(=O)O)NC(=O)CNC1=O)C(=O)N[C@@H](Cc1ccccc1)C(=O)N[C@H](C(=O)NCCOCCOCCOCCNC(=O)COCC(N)=O)CSCC(=O)N[C@@H](CCCCN)C(=O)N2` [NC100717] ({CH2CO}-KCRGDCFC-X2; disulfide 2-6; thioether N-8; N-terminus and C-terminus assumed), the IC50 in assay [1] is 1.1 ± 0.1 nM; in assay [2] (setting [7]) it was 820 ± 156 nM; in assay [3], over 10000 nM; in assay [4], over 10000 nM; in assay [5], over 10000 nM; in assay [6] it was 16.7 ± 2.1 nM.

Turning to `N=C(N)NCCC[C@H](NC(=O)CN)C(=O)NCC(=O)N[C@@H](CC(=O)O)C(=O)N[C@@H](CC(N)=O)C(=O)N1CCC[C@H]1C(=O)O` [GRGDNP] (H-GRGDNP-OH), the IC50 was 45 ± 12 nM in assay [1]; 34 ± 3 nM in assay [2] (setting [7]); over 10000 nM in assay [3]; over 10000 nM in assay [4]; over 10000 nM in assay [5]; 506 ± 120 nM in assay [6].

Consider `N=C(N)NCCC[C@@H]1NC(=O)CNC(=O)C[C@@H](C(=O)O)NC(=O)[C@@H](c2ccccc2)NC(=O)[C@@H](CCCCN)NC1=O` [c(phgisoDGRk)] (GR[dK][dPhg]D-OH; lactam N-5), for which the 50% inhibitory concentration (IC50) is over 10000 nM in assay [1]; 9.43 ± 1.33 nM in assay [2] (setting [7]); 77 ± 6 nM in assay [3]; 18 ± 2.5 nM in assay [4]; over 10000 nM in assay [5]; over 10000 nM in assay [6].

For `N=C(N)NCCC[C@@H]1NC(=O)CNC(=O)C[C@@H](C(=O)O)NC(=O)[C@@H](c2ccccc2)NC(=O)[C@@H](CCCCNC(=O)COCCOCCNC(=O)CCS)NC1=O` [c(phgisoDGRk)-Peg-MPA] (GR[dK]([AEEA-Mpa])[dPhg]D-OH; lactam N-5), the half-maximal inhibitory concentration (IC50) in assay [1] was over 10000 nM; in assay [2] (setting [7]), 31 ± 3.4 nM; in assay [3] it was over 10000 nM; in assay [4], 52 ± 4.8 nM; in assay [5], over 10000 nM; in assay [6], over 10000 nM. Also, the “fold change of α5β1 IC50-value after functionalization” value in assay [2] (versus c(phgisoDGRk)) is listed as 2 fold. Also, the “fold change of αvβ6 IC50-value after functionalization” value in assay [4] (versus c(phgisoDGRk)) is on record as 2 fold.

With `CC(C)C[C@H](NC(=O)[C@H](CC(=O)O)NC(=O)CNC(=O)[C@H](CCCNC(=N)N)NC(=O)[C@H](CC(C)C)NC(=O)[C@H](CC(N)=O)NC(=O)[C@@H]1CCCN1C(=O)[C@@H](NC(=O)[C@H](C)NC(=O)[C@@H](N)CC(N)=O)C(C)C)C(=O)N[C@@H](CCC(N)=O)C(=O)N[C@H](C(=O)N[C@@H](CC(C)C)C(=O)N[C@@H](C)C(=O)N[C@@H](CCC(N)=O)C(=O)N[C@@H](CCCCN)C(=O)N[C@H](C(=O)N[C@@H](C)C(=O)N[C@@H](CCCNC(=N)N)C(=O)N[C@H](C(=O)O)[C@@H](C)O)C(C)C)C(C)C` [A20FMDV2], in assay [2], the 50% inhibitory concentration (IC50) is over 10000 nM.

Take `N=C(N)NCCC[C@H](NC(=O)CN)C(=O)NCC(=O)N[C@@H](CC(=O)O)C(=O)N[C@@H](CO)C(=O)O` [GRGDS]: in assay [2] (setting [7]), the half-maximal inhibitory concentration (IC50) was 77 ± 8 nM.

As to `C[C@@H](O)[C@H](NC(=O)[C@H](CC(=O)O)NC(=O)CNC(=O)[C@H](CCCNC(=N)N)NC(=O)CN)C(=O)N1CCC[C@H]1C(=O)O` [GRGDTP] (H-GRGDTP-OH), the half-maximal inhibitory concentration (IC50) in assay [1] was 28 ± 5 nM; in assay [2] (setting [7]), 84 ± 12 nM; in assay [3], over 10000 nM; in assay [4], over 10000 nM; in assay [5], over 10000 nM; in assay [6] it was 423 ± 65 nM.

On to `N=C(N)NCCC[C@@H]1NC(=O)[C@H](CCCCNC(=O)CCOCCOCCOCCOCCOCCOCCNC(=O)CCS)NC(=O)[C@@H](Cc2ccccc2)NC(=O)[C@H](CC(=O)O)NC(=O)CNC1=O` [c(RGDfK)-Peg-MPA], for which the IC50 is 15 ± 1.8 nM in assay [1]; 201 ± 31 nM in assay [2] (setting [7]); over 10000 nM in assay [3]; 422 ± 44 nM in assay [4]; over 10000 nM in assay [5]; 390 ± 53 nM in assay [6].

As to `CC(=O)N1CCC[C@H]1C(=O)N[C@@H](Cc1c[nH]cn1)C(=O)N[C@@H](CO)C(=O)N[C@@H](CS)C(=O)N[C@@H](CC(N)=O)C(N)=O` [ATN161, Ac-PHSCN-NH2] (Ac-PHSCN-NH2), the concentration for half-maximal inhibition (IC50) is over 10000 nM in assay [1]; 4.2 ± 0.5 nM in assay [2] (setting [7]); over 10000 nM in assay [3]; 3130 ± 591 nM in assay [4]; over 10000 nM in assay [5]; over 10000 nM in assay [6].

In the case of `N=C(N)NCCC[C@@H]1NC(=O)[C@@H]2CSSC[C@H](NC(=O)[C@H](CC(=O)O)NC(=O)CNC1=O)C(=O)N[C@@H](Cc1ccccc1)C(=O)N[C@H](C(=O)NCCOCCOCCOCCNC(=O)COCC(N)=O)CSCC(=O)N[C@@H](CCCCNC(=O)COCC(=O)NCCOCCOCCOCCOCCOCCNC(=O)CO/N=C/c1ccc(F)cc1)C(=O)N2` [Flucilatide] ({CH2CO}-K(X1)CRGDCFC-X2; disulfide 2-6; thioether N-8; N-terminus and C-terminus assumed), in assay [1] (versus targeting unit NC100717), the “fold change of αvβ3 IC50-value after functionalization” value came out at 3 fold.

With Echistatin, the IC50 in assay [1] came out at 0.46 ± 0.14 nM; in assay [2] (setting [7]), 0.57 ± 0.19 nM; in assay [3], 12.8 ± 2.5 nM; in assay [5] it was 0.9 ± 0.24 nM; in assay [6] it was 1.4 ± 0.2 nM.

Regarding `Cc1ccnc(NCCCC(=O)NCC(=O)NC(CC(=O)O)c2ccc(-c3cccc4ccccc34)cc2)c1` (stereo not drawn) [Mol11*], the 50% inhibitory concentration (IC50) in assay [1] is 13.2 ± 0.5 nM; in assay [2] (setting [7]), 3020 ± 410 nM; in assay [3] it was 18.5 ± 4.3 nM; in assay [4], 1.3 nM and 1.32 nM; in assay [5] it was over 10000 nM; in assay [6], 530 ± 49 nM.

Consider `CCCCS(=O)(=O)N[C@@H](Cc1ccc(OCCCCC2CCNCC2)cc1)C(=O)O` [Tirofiban], for which the IC50 in assay [1], in assay [2] (setting [7]), in assay [3], in assay [4] and in assay [6] was over 10000 nM each time.

For the molecule `CC(C)C[C@H](NC(=O)[C@H](CO)NC(=O)[C@H](CC(=O)O)NC(=O)[C@H](CC(C)C)NC(=O)[C@H](CC(=O)O)NC(=O)[C@@H](NC(=O)[C@@H](N)CCCNC(=N)N)[C@@H](C)O)C(=O)N[C@@H](CCCNC(=N)N)C(=O)N[C@H](C(=O)O)[C@@H](C)O`, the 50% inhibitory concentration (IC50) was 6230 ± 540 nM in assay [1]; over 10000 nM in assay [2] (setting [7]); 320 ± 25 nM in assay [3]; over 10000 nM in assay [5]; over 10000 nM in assay [6].

Regarding `N=C(N)NCCC[C@@H]1NC(=O)[C@H](CCCCN)NC(=O)[C@@H](Cc2ccccc2)NC(=O)[C@H](CC(=O)O)NC(=O)CNC1=O` [c(RGDfK)], the IC50 in assay [2] (setting [7]) was 141 ± 15 nM; in assay [3], 5200 ± 670 nM; in assay [5], over 10000 nM; in assay [6] it was 340 ± 24 nM.

Regarding `N=C(N)NCCC[C@H](N)C(=O)NCC(=O)N[C@@H](CC(=O)O)C(=O)O` [RGD], the half-maximal inhibitory concentration (IC50) in assay [1] is 89 ± 12 nM; in assay [3] it was over 10000 nM; in assay [4] it was over 10000 nM; in assay [5] it was over 10000 nM; in assay [6], 440 ± 65 nM.

`N=C(N)NCCC[C@@H]1NC(=O)[C@H](CCCCN)NC(=O)[C@@H](Cc2ccc(O)cc2)NC(=O)[C@H](CC(=O)O)NC(=O)CNC1=O` [c(RGDyK)]: the IC50 in assay [2] (setting [7]) was 236 ± 45 nM; in assay [3] it was over 10000 nM.

With `NC(N)=NCCC[C@H](N)C(=O)NCC(=O)N[C@@H](CC(=O)O)C(=O)N[C@@H](CO)C(=O)O` [RGDS], the IC50 is 45 ± 5 nM in assay [1]; 181 ± 23 nM in assay [2] (setting [7]); over 10000 nM in assay [3]; over 10000 nM in assay [4]; 433 ± 34 nM in assay [6].
